{"source": "patent US20140162879A1", "about": "“SYNERGISTIC WEED CONTROL FROM APPLICATIONS OF AMINOCYCLOPYRACHLOR AND 2,4 DICHLOROPHENOXYACETIC ACID (2,4-D)” (Dow AgroSciences LLC, priority 2012, published 2014)", "key": {"[1]": {"system": "Senna obtusifolia (CASOB, java bean)", "test": "Field trial, post-emergence foliar application, weed control rating", "format": "in vivo", "experimental": "(§1) As described in the Herbicide Handbook of the Weed Science Society of America, Ninth Edition, 2007, p. […] In some embodiments, the damage or injury to the undesired vegetation caused by the compositions and methods disclosed herein is evaluated using a scale from 0% to 100%, when compared with the untreated control vegetation, wherein 0% indicates no damage to the undesired vegetation and 100% indicates complete destruction of the undesired vegetation. […] 22 (1967)\n(§2) Field trials were conducted with applications made to established grassland with naturally occurring weed populations. The target plants were treated with postemergence foliar applications when they were at the beginning of flowering stage and 50 centimeters (cm) (19.7 inches (in)) tall for Senna obtusifolia plants and at the flowering stage and 70-90 cm (27.6-35.4 in) for Melochia parviflora plants. All treatments were applied using a randomized complete block trial design, with 4 replications per treatment.\n(§3) Treatments consisted of aminocyclopyrachlor in acid form and the dimethylamine salt of 2,4-D, each in water and applied alone or in combination. Spray solutions were prepared using an appropriate amount of dilution to form a 2.4 liter (L) aqueous spray solution with active ingredients in single and two way combinations. Formulated compounds were applied to the plant material with a backpack sprayer equipped with 8003 nozzles calibrated to deliver 42.8 gallons per acre (gal/acre) (400 liters per hectare (L/ha)) at a spray height of 18-20 inches (45-51 centimeters (cm)) above average plant canopy.\n(§4) The treated plants were Senna obtusifolia (CASOB, java bean), or Melochia parviflora (MEOPA). The treated plots and control plots were rated blind at various intervals after application. Ratings were based on a scale of 0-100%, as discussed above, wherein 0% indicates no damage to the undesired vegetation and 100% indicates complete destruction of the undesired vegetation\n(§5) Colby's equation was used to determine the herbicidal effects expected from the mixtures, as described above. The results were measured at 42 days or 58-62 days after the first application of the compositions. […] The herbicide tank mix combinations tested, application rates and ratios employed, plant species tested, and results are given below."}, "[2]": {"system": "Melochia parviflora (MEOPA)", "test": "Field trial, post-emergence foliar application, weed control rating", "format": "in vivo", "settings": "58-62 days", "experimental": "as §1, §2, §3, §4, §5"}}, "note": "Counter-ions that a name gives are not always drawn."}
{"smiles": "Nc1nc(C2CC2)nc(C(=O)O)c1Cl", "note": "[Aminocyclopyrachlor, 6-amino-5-chloro-2-cyclopropylpyrimidine-4-carboxylic acid]", "values": [{"measurement": "Mean % weed control", "setting": "[1]; aminocyclopyrachlor alone 35 g ae/ha, 42 days after application", "value": 72.0, "unit": "%"}, {"measurement": "Mean % weed control", "setting": "[2]; aminocyclopyrachlor alone 35 g ae/ha", "value": 6.8, "unit": "%"}, {"measurement": "Mean % weed control", "setting": "[2]; aminocyclopyrachlor alone 70 g ae/ha", "value": 10.0, "unit": "%"}, {"measurement": "Mean % weed control", "setting": "[2]; aminocyclopyrachlor alone 140 g ae/ha", "value": 52.1, "unit": "%"}, {"measurement": "Mean % weed control", "setting": "[2]; aminocyclopyrachlor alone 210 g ae/ha", "value": 81.8, "unit": "%"}]}
{"smiles": "O=C(O)COc1ccc(Cl)cc1Cl", "note": "[Dimethylamine salt of 2,4-D, 2,4-dichlorophenoxyacetic acid]", "values": [{"measurement": "Mean % weed control", "setting": "[1]; dimethylamine salt of 2,4-D alone 1120 g ae/ha, 42 days", "value": 64.3, "unit": "%"}, {"measurement": "Mean % weed control", "setting": "[2]; dimethylamine salt of 2,4-D alone 1120 g ae/ha", "value": 24.4, "unit": "%"}]}
